Experimental data reported in patent US20220347167A1, “A NEW TREATMENT FOR MEIBOMIAN GLAND DYSFUNCTION” (The Schepens Eye Research Institute, Inc., priority 2019, published 2022).

Test system: DNase II
Test: DNase II activity by single radial enzyme diffusion assay (SREDA) in IHMGECs
Format: cell-based, human
Procedure: After being treated with 21% O2, 1% O2, 10 μM Roxa or a combination for 10 days, cell numbers were counted with a hemocytometer and the cell lysates and cell culture supernatants were collected, as previously described in Liu et al. (2019) The ocular surface 17(2):310-317. DNase II activity in fresh samples was analyzed by SREDA in agarose gels according to published protocols in Liu et al. (2019) The ocular surface 17(2):310-317 and Oka et al. (2012) Nature 485:251-255. Cell lysates and culture media were used to measure the DNase II activity inside and outside of the cells, respectively [Liu et al. (2019) The ocular surface 17(2):310-317]. After incubation for 3-24 hours at 37° C., the area of the dark circle in the gel was measured under an UV trans-illuminator at 312 nm. For comparison between conditions, values were normalized to cell number.
Low O2 increases DNase II activity and promotes cell terminal differentiation of IHMGECs (Liu et al. Ocul Surf 2019; 17:310-317). To determine whether Roxa treatment can reproduce this hypoxic effect, IHMGECs were treated with Roxa in both normoxic and 1% O2 conditions for 10 days, prior to counting cell numbers and analyzing DNase II activity in cell lysates and supernatants.

[1] = Roxa alone, 21% O2, 10 days, normalized to cell number

**Q.** Which results are given for `Cc1nc(C(=O)NCC(=O)O)c(O)c2ccc(Oc3ccccc3)cc12` [Roxa, roxadustat]?
**A.** DNase II activity in IHMGEC culture supernatants [1]: significantly increased; DNase II activity in IHMGEC lysates [1]: significantly increased; magnitude of DNase II activity increase, Roxa and low O2 combination (Roxa in 1% O2, 10 days, lysates and supernatants, vs 1% O2 alone and Roxa alone): greatest
